Columns and labels:
[1] = molecular target: T1, UDP-glucuronosyltransferase 1A4 (Homo sapiens, UniProt P22310); assay: Activity of human recombinant UGT1A4 expressed in insect cells assessed as enzyme mediated glucuronidation at 500 uM by LC-MS/MS method; format: ADME
T1 sequence (P22310 whole entry): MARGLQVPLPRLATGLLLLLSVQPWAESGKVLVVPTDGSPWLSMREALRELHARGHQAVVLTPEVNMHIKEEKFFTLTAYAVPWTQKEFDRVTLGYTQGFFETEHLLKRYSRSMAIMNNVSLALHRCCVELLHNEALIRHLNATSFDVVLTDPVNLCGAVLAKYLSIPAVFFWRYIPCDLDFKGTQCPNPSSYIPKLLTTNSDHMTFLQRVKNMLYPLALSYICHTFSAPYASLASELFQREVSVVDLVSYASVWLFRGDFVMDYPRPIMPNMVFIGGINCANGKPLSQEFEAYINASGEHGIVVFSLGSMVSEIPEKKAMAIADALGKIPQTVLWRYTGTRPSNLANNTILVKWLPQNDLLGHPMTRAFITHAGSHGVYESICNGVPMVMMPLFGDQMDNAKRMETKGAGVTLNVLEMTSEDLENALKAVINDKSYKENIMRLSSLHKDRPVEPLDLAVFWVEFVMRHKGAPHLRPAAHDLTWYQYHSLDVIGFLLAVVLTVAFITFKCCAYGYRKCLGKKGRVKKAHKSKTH

[2] = test system: Liver microsome; assay: Drug metabolism in human liver microsomes assessed as intrinsic clearance for drug glucuronidation per mg tissue in presence of BSA by LC-MS/MS method; format: ADME
[3] = molecular target: T2, UDP-glucuronosyltransferase 1A9 (Homo sapiens, UniProt O60656); assay: Activity of human recombinant UGT1A9 expressed in insect cells assessed as enzyme mediated glucuronidation in presence of 100 to 1000 uM propofol by LC-MS/MS method; format: ADME
T2 sequence (O60656 whole entry): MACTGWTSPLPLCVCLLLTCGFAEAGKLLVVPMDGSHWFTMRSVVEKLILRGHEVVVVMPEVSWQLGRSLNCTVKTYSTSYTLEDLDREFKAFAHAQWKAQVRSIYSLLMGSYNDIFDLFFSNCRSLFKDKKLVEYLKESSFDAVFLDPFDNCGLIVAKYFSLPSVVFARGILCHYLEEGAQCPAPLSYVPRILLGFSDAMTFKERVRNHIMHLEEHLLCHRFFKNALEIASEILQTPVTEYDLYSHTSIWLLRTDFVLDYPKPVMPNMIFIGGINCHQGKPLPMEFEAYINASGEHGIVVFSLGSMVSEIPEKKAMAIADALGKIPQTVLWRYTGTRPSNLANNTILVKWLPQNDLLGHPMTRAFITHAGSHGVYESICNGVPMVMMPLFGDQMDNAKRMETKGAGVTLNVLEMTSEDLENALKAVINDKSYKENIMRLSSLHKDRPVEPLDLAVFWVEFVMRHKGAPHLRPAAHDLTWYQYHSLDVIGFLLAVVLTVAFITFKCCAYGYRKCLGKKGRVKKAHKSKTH

[4] = molecular target: T3, UDP-glucuronosyltransferase 2B17 (Homo sapiens, UniProt O75795); assay: Activity of human recombinant UGT2B17 expressed in insect cells assessed as enzyme mediated glucuronidation in presence of 5 to 35 uM androsterone by LC-MS/MS method; format: ADME
T3 sequence (O75795 whole entry): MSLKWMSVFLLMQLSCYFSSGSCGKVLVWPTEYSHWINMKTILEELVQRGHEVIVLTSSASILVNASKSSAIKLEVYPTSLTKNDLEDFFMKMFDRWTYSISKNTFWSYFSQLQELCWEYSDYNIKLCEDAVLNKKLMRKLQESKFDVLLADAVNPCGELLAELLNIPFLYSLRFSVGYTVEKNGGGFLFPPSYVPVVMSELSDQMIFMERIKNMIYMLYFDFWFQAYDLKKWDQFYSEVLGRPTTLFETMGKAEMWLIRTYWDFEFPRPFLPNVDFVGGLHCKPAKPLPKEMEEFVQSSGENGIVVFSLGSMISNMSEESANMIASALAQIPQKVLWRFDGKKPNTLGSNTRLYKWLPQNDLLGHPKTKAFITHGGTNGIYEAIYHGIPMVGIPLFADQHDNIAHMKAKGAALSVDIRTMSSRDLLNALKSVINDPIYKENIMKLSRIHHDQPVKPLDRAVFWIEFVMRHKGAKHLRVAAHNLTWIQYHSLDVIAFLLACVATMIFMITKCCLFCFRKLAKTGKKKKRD

[5] = Cmax in human at 0.5 mg/kg; format: ADME, organism-based; parameters: dose 0.5 mg/kg; conditions: in vivo

Drug metabolism [1]: metabolite_not_detected | CLHH [2]: 16.4 µL/min/g | CLHL [2]: 3.7 µL/min/mg | Drug metabolism [3]: metabolite_not_detected | Drug metabolism [4]: metabolite_not_detected | Cmax [5]: 6 µM
SMILES: CC1=NN(c2ccccc2)C(=O)C1 [EDARAVONE]
